Common to all, as to experiment: relative viability (nuclei count vs DMSO), 5 days (fraction); higher = more cells survive
Compound in experiment [1]: Cc1cc(Nc2cc(N3CCN(C)CC3)nc(Sc3ccc(NC(=O)C4CC4)cc3)n2)n[nH]1 [Tozasertib] + COc1cccc2cc(-c3nc([C@H]4CC[C@H](C(=O)O)CC4)n4ncnc(N)c34)[nH]c12 [OSI-027] (partner 0.5 µM)
Put shortly: (§1)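 One day after seeding in 1536-well plates, lung cancer cell lines were dosed by pin tool. Dosing was either single-drug or a fixed anchor-drug dose plus five library-drug doses (not always all listed) in √10 steps. After 5 days, nuclei were stained in one fix-and-stain step and counted on 4× images, and relative viability is the nuclei count of treated wells over that of vehicle wells, given as the median of duplicate plates.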

Compound in experiment [2]: Cc1cc(Nc2cc(N3CCN(C)CC3)nc(Sc3ccc(NC(=O)C4CC4)cc3)n2)n[nH]1 [Tozasertib] + CCNC(=O)c1noc(-c2cc(C(C)C)c(O)cc2O)c1-c1ccc(CN2CCOCC2)cc1 [Luminespib] (partner 0.01 µM)
Put shortly:
as §1

Compound in experiment [3]: Cc1cc(Nc2cc(N3CCN(C)CC3)nc(Sc3ccc(NC(=O)C4CC4)cc3)n2)n[nH]1 [Tozasertib] + Cc1nc(Nc2ncc(C(=O)Nc3c(C)cccc3Cl)s2)cc(N2CCN(CCO)CC2)n1 [Dasatinib] (partner 0.075 µM)
Put shortly:
as §1

Compound in experiment [4]: Cc1cc(Nc2cc(N3CCN(C)CC3)nc(Sc3ccc(NC(=O)C4CC4)cc3)n2)n[nH]1 [Tozasertib] + N=C(N)NC(=N)NCCc1ccccc1 [Phenformin] (partner 250 µM)
In outline:
as §1

Compound in experiment [5]: Cc1cc(Nc2cc(N3CCN(C)CC3)nc(Sc3ccc(NC(=O)C4CC4)cc3)n2)n[nH]1 [Tozasertib] + CS(=O)(=O)N1CCN(Cc2cc3nc(-c4cccc5[nH]ncc45)nc(N4CCOCC4)c3s2)CC1 [Pictilisib] (partner 1 µM)
In outline:
as §1

For the cell line NCI-H2170, the relative viability came out at 0.639 in experiment [1] (first compound 0.004 µM); 0.713 in experiment [1] (first compound 0.01265 µM); 0.792 in experiment [1] (first compound 0.04 µM); 0.628 in experiment [1] (first compound 0.1265 µM); 0.708 in experiment [2] (first compound 0.004 µM); 0.767 in experiment [2] (first compound 0.01265 µM). The relative viability was found to be 0.744 in experiment [2] (first compound 0.04 µM); 0.689 in experiment [2] (first compound 0.1265 µM); 0.565 in experiment [3] (first compound 0.004 µM); 0.501 in experiment [3] (first compound 0.01265 µM); 0.546 in experiment [3] (first compound 0.04 µM); 0.445 in experiment [3] (first compound 0.1265 µM). In addition, the relative viability in experiment [4] (first compound 0.004 µM) is 0.33; in experiment [4] (first compound 0.01265 µM), 0.364; in experiment [4] (first compound 0.04 µM) it was 0.436; in experiment [4] (first compound 0.1265 µM) it was 0.366; in experiment [5] (first compound 0.004 µM), 0.3; in experiment [5] (first compound 0.01265 µM), 0.327. The relative viability in experiment [5] (first compound 0.04 µM) is 0.295; in experiment [5] (first compound 0.1265 µM) it was 0.276.

As for NCI-H2228, the relative viability turned out to be 0.703 in experiment [1] (first compound 0.004 µM); 0.506 in experiment [1] (first compound 0.01265 µM); 0.528 in experiment [1] (first compound 0.04 µM); 0.29 in experiment [1] (first compound 0.1265 µM); 0.216 in experiment [2] (first compound 0.004 µM); 0.167 in experiment [2] (first compound 0.01265 µM). Further, the relative viability in experiment [2] (first compound 0.04 µM) amounted to 0.204; in experiment [2] (first compound 0.1265 µM), 0.167; in experiment [3] (first compound 0.004 µM), 0.493; in experiment [3] (first compound 0.01265 µM), 0.493; in experiment [3] (first compound 0.04 µM), 0.546; in experiment [3] (first compound 0.1265 µM) it was 0.232. Further, the relative viability in experiment [4] (first compound 0.004 µM) is 0.375; in experiment [4] (first compound 0.01265 µM), 0.298; in experiment [4] (first compound 0.04 µM) it was 0.254; in experiment [4] (first compound 0.1265 µM), 0.132; in experiment [5] (first compound 0.004 µM) it was 0.509; in experiment [5] (first compound 0.04 µM), 0.326. Moreover, in experiment [5] (first compound 0.1265 µM), the relative viability came out at 0.355.

As for NCI-H2347, the relative viability in experiment [1] (first compound 0.004 µM) is 0.447; in experiment [1] (first compound 0.04 µM) it was 0.369; in experiment [1] (first compound 0.1265 µM), 0.389; in experiment [2] (first compound 0.004 µM), 0.326; in experiment [2] (first compound 0.04 µM), 0.39; in experiment [2] (first compound 0.1265 µM), 0.346. Besides, the relative viability came to 0.344 in experiment [3] (first compound 0.004 µM); 0.262 in experiment [3] (first compound 0.04 µM); 0.281 in experiment [3] (first compound 0.1265 µM); 0.45 in experiment [4] (first compound 0.004 µM); 0.433 in experiment [4] (first compound 0.04 µM); 0.377 in experiment [4] (first compound 0.1265 µM). In addition, the relative viability in experiment [5] (first compound 0.004 µM) amounted to 0.723; in experiment [5] (first compound 0.01265 µM) it was 0.763; in experiment [5] (first compound 0.04 µM) it was 0.648; in experiment [5] (first compound 0.1265 µM), 0.389.

On to NCI-H2405, for which the relative viability in experiment [1] (first compound 0.004 µM) is 0.616; in experiment [1] (first compound 0.01265 µM), 0.676; in experiment [1] (first compound 0.04 µM), 0.642; in experiment [1] (first compound 0.1265 µM), 0.698; in experiment [2] (first compound 0.004 µM), 0.673; in experiment [2] (first compound 0.01265 µM) it was 0.67. The relative viability in experiment [2] (first compound 0.04 µM) worked out at 0.58; in experiment [2] (first compound 0.1265 µM), 0.712; in experiment [3] (first compound 0.004 µM), 0.251; in experiment [3] (first compound 0.01265 µM), 0.124; in experiment [3] (first compound 0.04 µM), 0.19; in experiment [3] (first compound 0.1265 µM), 0.197. Also, the relative viability in experiment [4] (first compound 0.004 µM) is 0.392; in experiment [4] (first compound 0.01265 µM), 0.402; in experiment [4] (first compound 0.04 µM) it was 0.424; in experiment [4] (first compound 0.1265 µM) it was 0.408; in experiment [5] (first compound 0.004 µM) it was 0.386; in experiment [5] (first compound 0.01265 µM), 0.478. Moreover, the relative viability stood at 0.479 in experiment [5] (first compound 0.04 µM) and 0.396 in experiment [5] (first compound 0.1265 µM).

As for NCI-H3122, the relative viability turned out to be 1.04 in experiment [1] (first compound 0.004 µM); 0.915 in experiment [1] (first compound 0.01265 µM); 0.967 in experiment [1] (first compound 0.04 µM); 0.928 in experiment [1] (first compound 0.1265 µM); 0.0858 in experiment [2] (first compound 0.004 µM); 0.0879 in experiment [2] (first compound 0.01265 µM). For the same cell line, the relative viability in experiment [2] (first compound 0.04 µM) was determined as 0.1; in experiment [2] (first compound 0.1265 µM), 0.101; in experiment [3] (first compound 0.004 µM) it was 0.71; in experiment [3] (first compound 0.01265 µM), 0.802; in experiment [3] (first compound 0.04 µM), 0.913; in experiment [3] (first compound 0.1265 µM), 0.886. For the same cell line, the relative viability came out at 0.38 in experiment [4] (first compound 0.004 µM); 0.346 in experiment [4] (first compound 0.01265 µM); 0.366 in experiment [4] (first compound 0.04 µM); 0.312 in experiment [4] (first compound 0.1265 µM); 0.626 in experiment [5] (first compound 0.004 µM); 0.49 in experiment [5] (first compound 0.01265 µM). The relative viability came to 0.656 in experiment [5] (first compound 0.04 µM) and 0.61 in experiment [5] (first compound 0.1265 µM).

In the case of PC-3 [JPC-3], the relative viability in experiment [1] (first compound 0.004 µM) was 0.587; in experiment [1] (first compound 0.01265 µM), 0.74; in experiment [1] (first compound 0.04 µM), 0.799; in experiment [1] (first compound 0.1265 µM) it was 0.701; in experiment [2] (first compound 0.004 µM), 0.625; in experiment [2] (first compound 0.01265 µM), 0.699. In addition, the relative viability in experiment [2] (first compound 0.04 µM) is 0.814; in experiment [2] (first compound 0.1265 µM), 0.71; in experiment [3] (first compound 0.004 µM), 0.863; in experiment [3] (first compound 0.01265 µM), 0.966; in experiment [3] (first compound 0.04 µM), 1.06; in experiment [3] (first compound 0.1265 µM), 1.03. In addition, the relative viability in experiment [4] (first compound 0.004 µM) is 0.377; in experiment [4] (first compound 0.01265 µM), 0.49; in experiment [4] (first compound 0.04 µM), 0.536; in experiment [4] (first compound 0.1265 µM) it was 0.469; in experiment [5] (first compound 0.004 µM) it was 0.657; in experiment [5] (first compound 0.01265 µM) it was 0.724. Besides, the results for the relative viability in experiment [5] (first compound 0.04 µM) and in experiment [5] (first compound 0.1265 µM) were 0.732 and 0.598, respectively.

The record behind these values is the supplement of paper PMC10307832.
